Values after ≈ are worked out from the molar mass of the structure shown.
What was measured:
[1] = test system: Mycobacterium tuberculosis; assay: In vitro actual minimum inhibitory concentration value of the compound was determined against Mycobacterium tuberculosis; type: functional
[2] = Compound was tested for cytotoxicity in Vero cells; type: cell-based; settings: Chlorocebus sabaeus
[3] = Selectivity index (ratio of IC50 and MIC) value was determined; settings: cercopithecidae
[4] = test system: Mycobacterium tuberculosis; assay: In vitro minimum inhibitory concentration value against Mycobacterium tuberculosis H37Rv strain in bactec assay; type: functional
[5] = test system: Mycobacterium tuberculosis; assay: In vitro minimum inhibitory concentration value against Mycobacterium tuberculosis H37Rv strain in alamar assay; type: functional
[6] = test system: Mycobacterium tuberculosis; assay: In vitro minimum inhibitory concentration value against Mycobacterium tuberculosis erdman strain in alamar assay; type: functional
[7] = test system: Mycobacterium tuberculosis; assay: In vitro effective concentration of the compound causing 90%reduction in residualmycobacterium tuberculosis growth after 7 days compared to untreated control; type: functional; settings: 168 h
[8] = test system: Mycobacterium tuberculosis; assay: In vitro ratio of EC90 and MIC value of the compound was determined; type: functional
[9] = test system: Mycobacterium tuberculosis; assay: In vitro effective concentration of the compound causing 99%reduction in residualmycobacterium tuberculosis growth after 7 days compared to untreated control; type: functional; settings: 168 h
[10] = test system: Mycobacterium tuberculosis; assay: In vitro actual minimum inhibitory concentration value against Mycobacterium tuberculosis; type: functional
[11] = Compound was tested for cytotoxicity in Vero cells; Insoluble; type: cell-based, Chlorocebus sabaeus
[12] = test system: Mycobacterium tuberculosis; assay: In vitro actual minimum inhibitory concentration value of the compound was determined against Mycobacterium tuberculosis H37Rv strain; Range is 0.015-0.125; type: functional

Which MIC [1] does the source give for CCc1c(C(=O)OC)[n+]([O-])c2cc(F)c(F)cc2[n+]1[O-] here?
The MIC was 1.56 mg/L (≈ 5.49 µM).

What about the IC50 [2] of the same compound?
Its IC50 is 1.2 mg/L (≈ 4.22 µM).

What about the SI [3] of the same compound?
Its SI is 0.77.

For C=CCc1c(C(=O)OC)[n+]([O-])c2cc(C)c(C)cc2[n+]1[O-], which MIC [1] is on record?
Its MIC is over 6.25 mg/L.

For CCOC(=O)COC(=O)c1c(CC)[n+]([O-])c2ccc(Cl)cc2[n+]1[O-], which MIC [1] is on record?
Its MIC is 1.56 mg/L (≈ 4.4 µM).

What about the IC50 [2] of the same compound?
The IC50 was 1.89 mg/L (≈ 5.33 µM).

And the SI [3]?
The SI was 1.2.

Which results are given for CCc1c(C(=O)OC)[n+]([O-])c2cc(C)c(C)cc2[n+]1[O-]?
MIC [1]: 6.25 mg/L (≈ 22.6 µM); MIC [4]: 0.2 mg/L (≈ 0.724 µM); MIC [5]: 0.39 mg/L (≈ 1.41 µM); IC50 [2]: > 62.5 mg/L; SI [3]: > 10; MIC [6]: 0.39 mg/L (≈ 1.41 µM)

What does the source list for C=CCc1c(C(=O)OC)[n+]([O-])c2cc(Cl)c(Cl)cc2[n+]1[O-]?
MIC [1]: 6.25 mg/L (≈ 19 µM); IC50 [2]: 5.8 mg/L (≈ 17.6 µM); SI [3]: 0.93

With COC(=O)c1c(C)[n+]([O-])c2cc(Cl)c(Cl)cc2[n+]1[O-] as the compound, how does the MIC [1] read?
Its MIC is 0.2 mg/L (≈ 0.66 µM).

And the IC50 [2]?
Its IC50 is 1.68 mg/L (≈ 5.54 µM).

And the SI [3]?
Its SI is 8.4.

Which MIC [1] does the source give for COC(=O)c1c(C(C)(C)C)[n+]([O-])c2cc(C)c(C)cc2[n+]1[O-] here?
The MIC was over 6.25 mg/L.

What does the source list for COC(=O)c1c(Cc2ccccc2)[n+]([O-])c2ccc(OC)cc2[n+]1[O-]?
MIC [1]: 0.78 mg/L (≈ 2.29 µM); IC50 [2]: > 62.5 mg/L; SI [3]: > 80.1

What does the source list for CCc1c(C(=O)OC)[n+]([O-])c2ccccc2[n+]1[O-]?
EC90 [7]: 0.88 mg/L (≈ 3.54 µM); MIC [1]: 1.56 mg/L (≈ 6.28 µM); Ratio [8]: 0.56; IC50 [2]: 47 mg/L (≈ 189 µM); SI [3]: 30.1; EC99 [9]: 3.32 µg/mL

With CCc1c(C(=O)OC)[n+]([O-])c2cc(C)ccc2[n+]1[O-] as the compound, how does the MIC [1] read?
The MIC was 1.56 mg/L (≈ 5.95 µM).

What about the IC50 [2] of the same compound?
Its IC50 is over 62.5 mg/L.

And the SI [3]?
The SI was over 40.1.

Which MIC [1] does the source give for COC(=O)c1c(C)[n+]([O-])c2ccccc2[n+]1[O-] here?
Its MIC is 1.56 mg/L (≈ 6.66 µM).

What about the IC50 [2] of the same compound?
Its IC50 is over 10 mg/L.

What about the SI [3] of the same compound?
Its SI is over 6.41.

Which EC90 [7] does the source give for COCCc1c(C(=O)OC)[n+]([O-])c2cc(Cl)c(Cl)cc2[n+]1[O-] here?
The EC90 was over 1.56 mg/L.

What about the MIC [1] of the same compound?
The MIC was 0.39 mg/L (≈ 1.12 µM).

What about the Ratio [8] of the same compound?
The Ratio was over 4.

And the IC50 [2]?
The IC50 was 4.5 mg/L (≈ 13 µM).

What about the SI [3] of the same compound?
The SI was 11.5.

And the EC99 [9]?
Its EC99 is over 1.56 µg/mL.

Which results are given for COC(=O)c1c(C)[n+]([O-])c2ccc(OC)cc2[n+]1[O-]?
MIC [1]: 1.56 mg/L (≈ 5.9 µM); IC50 [2]: 52.6 mg/L (≈ 199 µM); SI [3]: 33.7

For CCc1c(C(=O)OC)[n+]([O-])c2cc(Cl)c(Cl)cc2[n+]1[O-], which EC90 [7] is on record?
The EC90 was 0.63 mg/L (≈ 1.99 µM).

What about the MIC [1] of the same compound?
The MIC was under 0.2 mg/L.

And the Ratio [8]?
The Ratio was over 3.15.

What about the IC50 [2] of the same compound?
Its IC50 is 4 mg/L (≈ 12.6 µM).

And the SI [3]?
Its SI is over 20.

What about the EC99 [9] of the same compound?
The EC99 was 5.99 µg/mL.

Which results are given for CCc1c(C(=O)OC)[n+]([O-])c2cc(Cl)ccc2[n+]1[O-]?
EC90 [7]: 0.46 mg/L (≈ 1.63 µM); MIC [1]: 0.2 mg/L (≈ 0.708 µM); Ratio [8]: 2.3; IC50 [2]: > 10 mg/L; SI [3]: > 50; EC99 [9]: 1.14 µg/mL

For COC(=O)c1c(C(C)(C)C)[n+]([O-])c2ccc(Cl)cc2[n+]1[O-], which MIC [1] is on record?
The MIC was over 6.25 mg/L.

What does the source list for COC(=O)c1c(Cc2ccccc2)[n+]([O-])c2ccccc2[n+]1[O-]?
EC90 [7]: 0.15 mg/L (≈ 0.483 µM); MIC [1]: 0.1 mg/L (≈ 0.322 µM); Ratio [8]: 1.5; IC50 [2]: 47 mg/L (≈ 151 µM); SI [3]: 470; EC99 [9]: > 2 µg/mL

For COC(=O)c1c(C(C)(C)C)[n+]([O-])c2cc(Cl)c(Cl)cc2[n+]1[O-], which MIC [1] is on record?
Its MIC is over 6.25 mg/L.

With COC(=O)c1c(Cc2ccccc2)[n+]([O-])c2cc(F)c(F)cc2[n+]1[O-] as the compound, how does the MIC [1] read?
The MIC was over 6.25 mg/L.

Which EC90 [7] does the source give for COC(=O)c1c(C)[n+]([O-])c2ccc(C)cc2[n+]1[O-] here?
Its EC90 is 1.94 mg/L (≈ 7.82 µM).

What about the MIC [1] of the same compound?
The MIC was 1.56 mg/L (≈ 6.28 µM).

And the Ratio [8]?
The Ratio was 1.24.

And the IC50 [2]?
The IC50 was over 62.5 mg/L.

What about the SI [3] of the same compound?
The SI was over 40.1.

And the EC99 [9]?
The EC99 was 5.83 µg/mL.

Which results are given for COC(=O)c1c(Cc2ccccc2)[n+]([O-])c2ccc(Cl)cc2[n+]1[O-]?
EC90 [7]: 0.0005 mg/L (≈ 0.00145 µM); MIC [1]: 0.1 mg/L (≈ 0.29 µM); Ratio [8]: 0.01; IC50 [2]: 7.6 mg/L (≈ 22 µM); SI [3]: 76; EC99 [9]: 0.08 µg/mL

For COC(=O)c1c(C(C)(C)C)[n+]([O-])c2ccccc2[n+]1[O-], which MIC [1] is on record?
The MIC was over 6.25 mg/L.

With COC(=O)c1c(Cc2ccccc2)[n+]([O-])c2ccc(C)cc2[n+]1[O-] as the compound, how does the EC90 [7] read?
The EC90 was 1.13 mg/L (≈ 3.48 µM).

And the MIC [1]?
Its MIC is 0.39 mg/L (≈ 1.2 µM).

And the Ratio [8]?
The Ratio was 2.9.

What about the IC50 [2] of the same compound?
The IC50 was 56 mg/L (≈ 173 µM).

What about the SI [3] of the same compound?
Its SI is 144.

What about the EC99 [9] of the same compound?
Its EC99 is 3.79 µg/mL.

Which results are given for CCOC(=O)COC(=O)c1c(CC)[n+]([O-])c2cc(Cl)c(Cl)cc2[n+]1[O-]?
MIC [1]: 0.2 mg/L (≈ 0.514 µM); IC50 [2]: 1.22 mg/L (≈ 3.13 µM); SI [3]: 6.1

For COC(=O)c1c(C)[n+]([O-])c2cc(C)c(C)cc2[n+]1[O-], which EC90 [7] is on record?
The EC90 was 1.64 mg/L (≈ 6.25 µM).

And the MIC [1]?
Its MIC is 3.13 mg/L (≈ 11.9 µM).

What about the Ratio [8] of the same compound?
The Ratio was 0.52.

And the IC50 [2]?
The IC50 was over 62.5 mg/L.

And the SI [3]?
The SI was over 20.

And the EC99 [9]?
The EC99 was 6.15 µg/mL.

Which MIC [4] does the source give for COC(=O)c1c(Cc2ccccc2)[n+]([O-])c2cc(Cl)c(Cl)cc2[n+]1[O-] here?
Its MIC is 6.25 mg/L (≈ 16.5 µM).

What about the MIC [10] of the same compound?
Its MIC is 6.25 mg/L (≈ 16.5 µM).

What about the MIC [5] of the same compound?
The MIC was at most 3.13 mg/L.

What about the MIC [6] of the same compound?
The MIC was at most 3.13 mg/L.

For COC(=O)c1c(C)[n+]([O-])c2cc(F)c(F)cc2[n+]1[O-], which MIC [1] is on record?
The MIC was 0.39 mg/L (≈ 1.44 µM).

And the IC50 [2]?
Its IC50 is 1.48 mg/L (≈ 5.48 µM).

What about the SI [3] of the same compound?
The SI was 3.8.

With COC(=O)c1c(Cc2ccccc2)[n+]([O-])c2cc(C)c(C)cc2[n+]1[O-] as the compound, how does the IC50 [11] read?
Its IC50 is “Insoluble”.

And the MIC [1]?
Its MIC is 3.13 mg/L (≈ 9.25 µM).

With CCc1c(C(=O)OC)[n+]([O-])c2cc(OC)ccc2[n+]1[O-] as the compound, how does the MIC [1] read?
Its MIC is 6.25 mg/L (≈ 22.5 µM).

And the IC50 [2]?
Its IC50 is 39.9 mg/L (≈ 144 µM).

What about the SI [3] of the same compound?
The SI was 6.4.

With CO[C@H]1/C=C/O[C@@]2(C)Oc3c(C)c(O)c4c(O)c(c(/C=N/N5CCN(C)CC5)c(O)c4c3C2=O)NC(=O)/C(C)=C\C=C\[C@H](C)[C@H](O)[C@@H](C)[C@@H](O)[C@@H](C)[C@H](OC(C)=O)[C@@H]1C [RIFAMPIN] as the compound, how does the MIC [12] read?
The MIC was 0.125 mg/L (≈ 0.152 µM).

From ChEMBL document CHEMBL1144409, “Synthesis of new quinoxaline-2-carboxylate 1,4-dioxide derivatives as anti-Mycobacterium tuberculosis agents” (J Med Chem, 2005)
